Reference: patent publication US11166928B2, “Migraine prevention and treatment” (UNIVERSITATS-KINDERSPITAL, priority 2016, dated 2021)
“Also recorded” adds a separate entry of the source. Read-outs that look alike come from different tables or passages of the source. Blank lines part the entries; values can stand above or below the molecule they belong to.

Legend:
migraine patients [1] = assay: Tolerability, adverse events and palatability in the pilot experiments; format: in vivo, human
From the text: (§1) Monthly migraine attack frequency was summarized over the last 3 months and the average was used for baseline comparison. Patients were either instructed to take 26 g LL or 26 g LY in two daily doses (one hour before breakfast and one hour before dinner, respectively) for the duration of 4 weeks. They were instructed to refrain from any other changes in medication or food habits for the duration of that period. The primary outcome measure was changes in days with migraines from baseline. Days with migraine were recorded using a mobile app (myheadache.ch) or a pen and paper diary and averaged across participants.
as §1, with “take 20 g βHB,” for “take”
as §1, with “were” for “were either”, “10” for “26”, “racemic βHB” for “LL or 26 g LY in two daily doses (one hour before breakfast and one hour before dinner, respectively)”, “8 weeks, followed by one week wash-out period and then 8 weeks of 10 g D-βHB daily.” for “4 weeks.”

[2] = Blood glucose levels after a single oral dose, measured at the same time as βHB; format: in vivo, human; conditions: 10 g single oral dose, ante cibum/fasted
From the text: L-leucine (LL) and L-lysine (LY) are the two completely ketogenic amino acids. Via various steps, unused ketogenic amino acids (i.e. leucine or lysine) are metabolised into KB. While this is commonly known, to the best of our knowledge no data exists on the extent and time frame of such ketogenic amino acids to raise blood βHB levels. For the pharmacokinetics, four migraine patients were instructed to ingest either 13 g LL or 13 g LY on an empty stomach. Blood βHB and glucose concentrations were measured using a portable point-of-care blood ketone meter (Precision Xtra®) and matching test stripes at 5 points in time: 1) Baseline (directly before consumption), 2) 0.5 h after consumption, 3) 1 h after consumption, 4) 2 h after consumption, 5) 3 h after consumption and 6) 4 h after consumption. […]
For determining pharmacokinetics, the patients were given 10 g racemic beta-hydroxybutyrate (βHB) orally dissolved in water in 3 different conditions: (1) post cibum (after meal) (2) ante cibum (before meal) (3) 1 hour before meal. Blood βHB and glucose concentrations were measured using a portable point-of-care blood ketone meter (Precision Xtra®) and matching test stripes at 5 points in time: 1) Baseline (directly before consumption), 2) 0.5 h after consumption, 3) 1 h after consumption, 4) 2 h after consumption, 5) 3 h after consumption and 6) 4 h after consumption. […]

migraine patients [3] = assay: Open-label pilot intervention: change in days with migraine from baseline (headache diary); format: in vivo, human
From the text: Patients diagnosed with medium-high frequency or chronic migraine according to International Headache Society Classification version 3 by an experienced neurologist were included. They were excluded if they had any significant other neurological, psychiatric or medical disorder. A minimum average of 6 migraine days/month was required during the last 3 months. Ten migraine patients (age range: 25-61 years, 1 male, attack frequency range: 6-24 migraine days/months) were included in the pilot study and randomly assigned to four conditions: 1) L-leucine (LL), 2) L-lysine (LY), 3) racemic βHB, 4) D-βHB. […]
as §1, with “take 20 g βHB,” for “take”
Those two chronic migraineurs (20 or 22 migraine days/month) where instructed to take 20 g racemic βHB daily for 4 weeks and after a 1 week washout period double the dose to 40 g βHB for the following 4 weeks. Migraine days were recorded for the duration of the intervention and patients were instructed to refrain from any other life-style or medication changes. The mean baseline attack frequency was 21 migraine days (SEM=1) and dropped to 11.5 days after 4 weeks of 20 g βHB daily and 6 days after 4 weeks of 40 g βHB daily (see FIG. 4 A). This preventive effect is roughly proportional to the increase in dose, with 20 g βHB leading to 46% reduction in migraine days from baseline (SEM=18.86) and 40 g βHB to a 72% reduction (SEM=12.95; see FIG. 4 B).
as §1, with “were” for “were either”, “10” for “26”, “racemic βHB” for “LL or 26 g LY in two daily doses (one hour before breakfast and one hour before dinner, respectively)”, “8 weeks, followed by one week wash-out period and then 8 weeks of 10 g D-βHB daily.” for “4 weeks.”

migraine patients [4] = assay: Tolerability, adverse events and palatability in the pilot experiments; format: in vivo, human; conditions: 40 g daily, 4 weeks; 2 patients
[5] = set-up: species or system human; conditions: in vivo, po
From the text: Patients diagnosed with medium-high frequency or chronic migraine according to International Headache Society Classification version 3 by an experienced neurologist were included. They were excluded if they had any significant other neurological, psychiatric or medical disorder. A minimum average of 6 migraine days/month was required during the last 3 months. Ten migraine patients (age range: 25-61 years, 1 male, attack frequency range: 6-24 migraine days/months) were included in the pilot study and randomly assigned to four conditions: 1) L-leucine (LL), 2) L-lysine (LY), 3) racemic βHB, 4) D-βHB.
L-leucine (LL) and L-lysine (LY) are the two completely ketogenic amino acids. Via various steps, unused ketogenic amino acids (i.e. leucine or lysine) are metabolised into KB. While this is commonly known, to the best of our knowledge no data exists on the extent and time frame of such ketogenic amino acids to raise blood βHB levels. For the pharmacokinetics, four migraine patients were instructed to ingest either 13 g LL or 13 g LY on an empty stomach. Blood βHB and glucose concentrations were measured using a portable point-of-care blood ketone meter (Precision Xtra®) and matching test stripes at 5 points in time: 1) Baseline (directly before consumption), 2) 0.5 h after consumption, 3) 1 h after consumption, 4) 2 h after consumption, 5) 3 h after consumption and 6) 4 h after consumption. 13 g roughly correspond to the same number of particles (mmol) as 10 g βHB. Highest average concentrations of βHB were found after 2 and 3 h (mean=0.35 mmol/I; SEM=0.05) and remained levels to remain elevated for over 4 hours (see FIG. 1).
For determining pharmacokinetics, the patients were given 10 g racemic beta-hydroxybutyrate (βHB) orally dissolved in water in 3 different conditions: (1) post cibum (after meal) (2) ante cibum (before meal) (3) 1 hour before meal. Blood βHB and glucose concentrations were measured using a portable point-of-care blood ketone meter (Precision Xtra®) and matching test stripes at 5 points in time: 1) Baseline (directly before consumption), 2) 0.5 h after consumption, 3) 1 h after consumption, 4) 2 h after consumption, 5) 3 h after consumption and 6) 4 h after consumption. […] The levels dropped to near baseline after 2 hours.
Participants were given 10 g D-beta-hydroxybutyrate (βHB) orally dissolved in water in a fasted state. Blood βHB and glucose concentrations were measured using a portable point-of-care blood ketone meter (Precision Xtra®) and matching test stripes at 5 points in time: 1) Baseline (directly before consumption), 2) 0.5 h after consumption, 3) 1 h after consumption, 4) 2 h after consumption, 5) 3 h after consumption and 6) 4 h after consumption (see FIG. 5A). As with racemic βHB, highest average concentrations of βHB were found after approximately 1 h (mean=1.94 mmol/I; SEM=0.48).

[6] = 10 g daily, 8 weeks, 2 patients, mean baseline 13.5 days

Compound: NCCCC[C@H](N)C(=O)O [LY, L-lysine, reference compound]
- Adverse events / tolerability (migraine patients [1]; 26 g daily (13 g twice a day)): diarrhoea or nausea

Compound: CC(O)CC(=O)O (racemic) [βHB, beta-hydroxybutyric acid]
- Median migraine days after the intervention (migraine patients [3]; 20 g daily, 4 weeks, median at baseline 18): 7 migraine days
- Tolerability (in words) (migraine patients [1]; in comparison to the ketogenic amino acids, dose and isomer not stated): well tolerated

Compound: CC(O)CC(=O)O [D-βHB, D beta-hydroxybutyric (βHB) acid]
- Change in blood glucose levels after consumption [2]: completely stable; also recorded: does not seem to lead to a potentially unwanted drop in blood glucose levels; also recorded: no concomitant drop in blood glucose
- Mean migraine days after intervention (migraine patients [3]; [6]): 4.25 days
- Side-effects / tolerability (migraine patients [1]; 10 g daily, 8 weeks (2 months), 2 patients): No side-effects; also recorded: much better tolerated; also recorded: fewer gastrointestinal side-effects
- Time of highest average βHB concentration [5]: approximately 1 h

The next lines start with results.

- Half-life of blood βHB elevation (in words) ([5]; human): very short
- Time after which blood βHB levels dropped back to (near) baseline ([5]; human): 2 h
- Time of highest average βHB concentration ([5]; human): approximately 1 h
- Peak blood βHB level relative to LL [5]: approximately double
Compound: CC(O)CC(=O)O (racemic) [racemic βHB, beta-hydroxybutyric acid]
- Change in blood glucose levels after consumption [2]: substantial drop; also recorded: drop in blood glucose
- Average reduction in migraine days compared to baseline (migraine patients [3]; 10 g daily, 8 weeks, 2 high-frequency migraineurs (17 and 10 migraine days/month)): 18.5%
- Mean migraine days after intervention (migraine patients [3]; [6]): 11 days
- Average reduction in migraine days compared to baseline (migraine patients [3]; 20 g daily in two doses, 4 weeks, 4 medium-high frequency migraineurs (6-22 migraine days/month)): 51%
- Reduction in migraine days from baseline (migraine patients [3]; 20 g daily, 4 weeks, 2 chronic migraineurs (20 or 22 migraine days/month)): 46%
- Mean migraine days after intervention (migraine patients [3]; 20 g daily, 4 weeks, 2 chronic migraineurs, mean baseline 21 migraine days): 11.5 days
- Mean migraine days after intervention (migraine patients [3]; 20 g daily, 4 weeks, mean baseline 16.25 days): 8 days
- Range of reduction in migraine days compared to baseline (migraine patients [3]; 20 g daily, 4 weeks, range across patients): 25-80%
- Mean migraine days after intervention (migraine patients [3]; 40 g daily, 4 weeks, 2 chronic migraineurs, mean baseline 21 migraine days): 6 days
- Side-effects at increased dose (migraine patients [4]): increased side-effects further in both patients; also recorded: exacerbated the side-effects
- Adverse events / tolerability (migraine patients [1]; 20 g daily, 4 weeks, 5 patients): severe nausea and vertigo; also recorded: gastrointestinal upset; also recorded: problematic

- Time of highest average βHB concentration ([5]; human): 2 and 3 h
Compound: CC(C)C[C@H](N)C(=O)O [LL, L-leucine, reference compound]
- Adverse events / tolerability (migraine patients [1]; 26 g daily (13 g twice a day)): diarrhoea or nausea
